Values quoted from earlier work in article PMC6931083 (Journal of Pharmaceutical Analysis, 2019).

Conditions: ref 6 (Hentz et al.)

In the case of “A1 conjugated FITC-insulin: literature (Hentz et al.) FITC-insulin conjugated at A1”, the “Decrease in biological activity as compared to the native insulin” value is given as 10%.

In the case of “mono-conjugated FITC-insulin (tagged at B1 position): literature (Hentz et al.) mono-conjugated FITC-insulin tagged at B1 position”, the “Biological activity compared to the native insulin” value is given as “same biological activity as the native insulin”.

For “di-conjugated FITC-insulin: di-conjugated FITC-insulin at B1 and A1 (literature value, Hentz et al.)”, the “Decrease in biological activity as compared to the native insulin” value is listed as 100%.
